Source: PubChem BioAssay AID1745844 (Carcinogenic Potency Database (CPDB), 2022)
Activity calls are given as the source filed them. The rule behind the calls is not given here.

Tested on: rodent lifetime carcinogenesis bioassay, tumor incidence TD50
Experiment: chronic cancer bioassays in animals – CPDB, compiled studies (AID 1745844)

With `C=CCOC(=O)c1ccccc1C(=O)OCC=C` the TD50 (mouse, strain B6C3F1, females, by gavage, site: any site (literature study), lesion: several types, types named in the paper, dosed 103 weeks, study length 106 weeks) was 10100 mg/kg/day, the TD50 (mouse, strain B6C3F1, females, by gavage, site: forestomach, lesion: papilloma, NOS, dosed 103 weeks, study length 106 weeks) was 2730 mg/kg/day and the TD50 (mouse, strain B6C3F1, females, by gavage, site: liver, lesion: hepatocellular adenoma + hepatocellular carcinoma + neoplastic nodule, dosed 103 weeks, study length 106 weeks) was 2930 mg/kg/day. For the same molecule, the TD50 (mouse, strain B6C3F1, females, by gavage, site: lung, lesion: alveolar/bronchiolar adenoma + alveolar/bronchiolar carcinoma, dosed 103 weeks, study length 106 weeks) was 4180 mg/kg/day, the TD50 (mouse, strain B6C3F1, males, by gavage, site: all sites, lesion: malignant lymphoma, NOS, dosed 103 weeks, study length 106 weeks) was 816 mg/kg/day and the TD50 (mouse, strain B6C3F1, males, by gavage, site: any site (literature study), lesion: several types, types named in the paper, dosed 103 weeks, study length 106 weeks) was 717 mg/kg/day. The TD50 (mouse, strain B6C3F1, males, by gavage, site: forestomach, lesion: papilloma, NOS, dosed 103 weeks, study length 106 weeks) was 2460 mg/kg/day, the TD50 (mouse, strain B6C3F1, males, by gavage, site: liver, lesion: hepatocellular adenoma + hepatocellular carcinoma + neoplastic nodule, dosed 103 weeks, study length 106 weeks) was 6680 mg/kg/day and the TD50 (mouse, strain B6C3F1, males, by gavage, site: liver, lesion: hepatocellular adenoma, dosed 103 weeks, study length 106 weeks) was 2450 mg/kg/day. The TD50 (mouse, strain B6C3F1, males, by gavage, site: lung, lesion: alveolar/bronchiolar adenoma + alveolar/bronchiolar carcinoma, dosed 103 weeks, study length 106 weeks) was 8520 mg/kg/day, the TD50 (rat, strain Fischer 344, females, by gavage, site: all sites, lesion: mononuclear-cell leukemia, dosed 103 weeks, study length 104 weeks) was 138 mg/kg/day and the TD50 (rat, strain Fischer 344, females, by gavage, site: any site (literature study), lesion: several types, types named in the paper, dosed 103 weeks, study length 104 weeks) was 163 mg/kg/day. For the same molecule, the TD50 (rat, strain Fischer 344, males, by gavage, site: any site (literature study), lesion: several types, types named in the paper, dosed 103 weeks, study length 104 weeks) was 2990 mg/kg/day (inactive).
`CCOP(=S)(OCC)SC1OCCOC1SP(=S)(OCC)OCC` (stereo not given) was tested, and the TD50 (mouse, strain B6C3F1, females, in feed, site: any site (literature study), lesion: several types, types named in the paper, dosed 78 weeks, study length 90 weeks) was 2590 mg/kg/day (inactive), the TD50 (mouse, strain B6C3F1, females, in feed, site: lung, lesion: alveolar/bronchiolar adenoma + alveolar/bronchiolar carcinoma, dosed 78 weeks, study length 90 weeks) was 1820 mg/kg/day and the carcinogen call (mouse, strain B6C3F1, males, in feed, site: any site (literature study), lesion: several types, types named in the paper, dosed 78 weeks, study length 90 weeks) was “negative (inactive)”. The TD50 (mouse, strain B6C3F1, males, in feed, site: lung, lesion: alveolar/bronchiolar adenoma + alveolar/bronchiolar carcinoma, dosed 78 weeks, study length 90 weeks) was 628 mg/kg/day, the carcinogen call (rat, strain Osborne-Mendel, females, in feed, site: any site (literature study), lesion: several types, types named in the paper, dosed 78 weeks, study length 111 weeks) was “negative (inactive)” and the carcinogen call (rat, strain Osborne-Mendel, males, in feed, site: any site (literature study), lesion: several types, types named in the paper, dosed 78 weeks, study length 111 weeks) was “negative (inactive)”.
In the case of `CCCCCC(N)=O`, the carcinogen call (mouse, strain C57BL/6, females, in feed, site: liver, lesion: hepatocellular carcinoma, dosed 52 weeks, study length 69 weeks) was “negative (inactive)”, the TD50 (mouse, strain C57BL/6, females, in feed, site: lung, lesion: alveolar/bronchiolar adenoma, dosed 52 weeks, study length 69 weeks) was 37200 mg/kg/day (inactive) and the TD50 (mouse, strain C57BL/6, females, in feed, site: stomach, lesion: squamous-cell papilloma, dosed 52 weeks, study length 69 weeks) was 8900 mg/kg/day. For the same molecule, the TD50 (mouse, strain C57BL/6, males, in feed, site: all sites, lesion: malignant lymphoma, histiocytic type, dosed 52 weeks, study length 69 weeks) was 2140 mg/kg/day, the TD50 (mouse, strain C57BL/6, males, in feed, site: all sites, lesion: several types, types named in the paper, dosed 52 weeks, study length 69 weeks) was 1950 mg/kg/day and the TD50 (mouse, strain C57BL/6, males, in feed, site: liver, lesion: hemangiosarcoma, dosed 52 weeks, study length 69 weeks) was 25300 mg/kg/day (inactive). The TD50 (mouse, strain C57BL/6, males, in feed, site: liver, lesion: malignant lymphoma, histiocytic type, dosed 52 weeks, study length 69 weeks) was 25300 mg/kg/day, the TD50 (mouse, strain C57BL/6, males, in feed, site: lung, lesion: alveolar/bronchiolar adenoma, dosed 52 weeks, study length 69 weeks) was 3490 mg/kg/day (inactive) and the TD50 (mouse, strain C57BL/6, males, in feed, site: multiple organs, lesion: malignant lymphoma, histiocytic type, dosed 52 weeks, study length 69 weeks) was 2660 mg/kg/day. The carcinogen call (rat, strain Fischer 344, females, in feed, site: liver, lesion: one or several types, types not named, dosed 52 weeks, study length 69 weeks) was “negative (inactive)” and the carcinogen call (rat, strain Fischer 344, males, in feed, site: liver, lesion: one or several types, types not named, dosed 52 weeks, study length 69 weeks) was “negative (inactive)”.
